Tests used:
rice = assay: Test C flooded paddy test; format: in vivo, Oryza sativa; conditions: Flood, scale 0 to 100 (0 no effect, 100 complete control), 13 to 15 days
How it was run: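 Visual injury ratings against untreated controls, taken 13 to 15 days after compound was added to paddy water standing 3 cm above the soil.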

hairy beggarticks = assay: Test E preemergence; format: in vivo, Bidens pilosa; conditions: for Beggarticks plant response rating: scale 0 to 100 (0 no effect, 100 complete control); for Plant response rating, Beggarticks: scale 0 to 100, 0 no effect, 100 complete control
How it was run: (§1)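 Test chemicals formulated in a non-phytotoxic solvent mixture containing a surfactant were applied preemergence to seeds in silt loam soil or postemergence to plants at the 1- to 4-leaf stage in potting mix. After 14 to 21 days in a greenhouse, injury was visually rated against controls on a 0-100 scale (0 = no effect, 100 = complete control).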

surinam grass = assay: Test E preemergence; format: in vivo, Brachiaria decumbens; conditions: for Surinam Grass plant response rating: scale 0 to 100 (0 no effect, 100 complete control); for Plant response rating, Surinam Grass: scale 0 to 100, 0 no effect, 100 complete control
How it was run: as §1

wild poinsettia = assay: Test E preemergence; format: in vivo, Euphorbia heterophylla; conditions: for Poinsettia, Wild plant response rating: scale 0 to 100 (0 no effect, 100 complete control); for Plant response rating, Poinsettia, Wild: scale 0 to 100, 0 no effect, 100 complete control
How it was run: as §1

green foxtail = assay: Test E preemergence; format: in vivo, Setaria viridis; conditions: for Foxtail, Green plant response rating: scale 0 to 100 (0 no effect, 100 complete control); for Plant response rating, Foxtail, Green: scale 0 to 100, 0 no effect, 100 complete control
How it was run: as §1

arrowleaf sida = assay: Test E preemergence; format: in vivo, Sida rhombifolia; conditions: for Arrowleaf Sida plant response rating: scale 0 to 100 (0 no effect, 100 complete control); for Plant response rating, Arrowleaf Sida: scale 0 to 100, 0 no effect, 100 complete control
How it was run: as §1

lambsquarters = assay: Test E preemergence; format: in vivo, Chenopodium album; conditions: for Lambsquarters plant response rating: scale 0 to 100 (0 no effect, 100 complete control); for Plant response rating, Lambsquarters: scale 0 to 100, 0 no effect, 100 complete control
How it was run: as §1

yellow nutsedge = assay: Test E preemergence; format: in vivo, Cyperus esculentus; conditions: for Nutsedge, Yellow plant response rating: scale 0 to 100 (0 no effect, 100 complete control); for Plant response rating, Nutsedge, Yellow: scale 0 to 100, 0 no effect, 100 complete control
How it was run: as §1

Italian ryegrass = assay: Test E preemergence; format: in vivo, Lolium multiflorum; conditions: for Ryegrass, Italian plant response rating: scale 0 to 100 (0 no effect, 100 complete control); for Plant response rating, Ryegrass, Italian: scale 0 to 100, 0 no effect, 100 complete control
How it was run: as §1

goosegrass = assay: Test E preemergence; format: in vivo, Eleusine indica; conditions: for Goosegrass plant response rating: scale 0 to 100 (0 no effect, 100 complete control); for Plant response rating, Goosegrass: scale 0 to 100, 0 no effect, 100 complete control
How it was run: as §1

dayflower = assay: Test E preemergence; format: in vivo, Commelina virginica; conditions: for Dayflower, VA plant response rating: scale 0 to 100 (0 no effect, 100 complete control); for Plant response rating, Dayflower, VA: scale 0 to 100, 0 no effect, 100 complete control
How it was run: as §1

sandbur = assay: Test E preemergence; format: in vivo, Cenchrus echinatus; conditions: for Sandbur plant response rating: scale 0 to 100 (0 no effect, 100 complete control); for Plant response rating, Sandbur: scale 0 to 100, 0 no effect, 100 complete control
How it was run: as §1

For `FC(F)(F)c1cnn(-c2ccccc2Oc2ncc(Br)cn2)c1` [Compound 18, 5-bromo-2-[2-[4-(trifluoromethyl)-1H-pyrazol-1-yl]phenoxy]pyrimidine], the “Plant response rating, Rice” value (rice; 31 g ai/ha) was 0, the “Plant response rating, Rice” value (rice; 62 g ai/ha) was 0 and the “Plant response rating, Rice” value (rice; 125 g ai/ha) was 0. The “Plant response rating, Rice” value (rice; 250 g ai/ha) was 10, the “Beggarticks plant response rating” value (hairy beggarticks; 16 g ai/ha, preemergence) was 0 and the “Beggarticks plant response rating” value (hairy beggarticks; 31 g ai/ha, preemergence) was 0. The “Plant response rating, Beggarticks” value (hairy beggarticks; Preemergence, 62 g ai/ha) was 0, the “Plant response rating, Beggarticks” value (hairy beggarticks; preemergence, 125 g ai/ha) was 0 and the “Plant response rating, Beggarticks” value (hairy beggarticks; preemergence, 250 g ai/ha) was 0. For the same molecule, the “Surinam Grass plant response rating” value (surinam grass; 16 g ai/ha) was 0, the “Surinam Grass plant response rating” value (surinam grass; 31 g ai/ha) was 0 and the “Surinam Grass plant response rating” value (surinam grass; 62 g ai/ha) was 0. The “Plant response rating, Surinam Grass” value (surinam grass; 125 g ai/ha) was 0, the “Plant response rating, Surinam Grass” value (surinam grass; 250 g ai/ha) was 20 and the “Poinsettia, Wild plant response rating” value (wild poinsettia; 16 g ai/ha) was 0. For the same molecule, the “Poinsettia, Wild plant response rating” value (wild poinsettia; 31 g ai/ha) was 0, the “Poinsettia, Wild plant response rating” value (wild poinsettia; 62 g ai/ha) was 0 and the “Plant response rating, Poinsettia, Wild” value (wild poinsettia; 125 g ai/ha) was 0. The “Plant response rating, Poinsettia, Wild” value (wild poinsettia; 250 g ai/ha) was 50, the “Foxtail, Green plant response rating” value (green foxtail; 16 g ai/ha) was 0 and the “Foxtail, Green plant response rating” value (green foxtail; 31 g ai/ha) was 0. The “Foxtail, Green plant response rating” value (green foxtail; 62 g ai/ha) was 65, the “Plant response rating, Foxtail, Green” value (green foxtail; 125 g ai/ha) was 100 and the “Plant response rating, Foxtail, Green” value (green foxtail; 250 g ai/ha) was 100. For the same molecule, the “Arrowleaf Sida plant response rating” value (arrowleaf sida; 16 g ai/ha, preemergence) was 0, the “Arrowleaf Sida plant response rating” value (arrowleaf sida; 31 g ai/ha, preemergence) was 5 and the “Plant response rating, Arrowleaf Sida” value (arrowleaf sida; Preemergence, 62 g ai/ha) was 70. The “Plant response rating, Arrowleaf Sida” value (arrowleaf sida; preemergence, 125 g ai/ha) was 85, the “Plant response rating, Arrowleaf Sida” value (arrowleaf sida; preemergence, 250 g ai/ha) was 95 and the “Lambsquarters plant response rating” value (lambsquarters; 16 g ai/ha) was 80. The “Lambsquarters plant response rating” value (lambsquarters; 31 g ai/ha) was 90, the “Lambsquarters plant response rating” value (lambsquarters; 62 g ai/ha) was 98 and the “Plant response rating, Lambsquarters” value (lambsquarters; 125 g ai/ha) was 98. The “Plant response rating, Lambsquarters” value (lambsquarters; 250 g ai/ha) was 98, the “Nutsedge, Yellow plant response rating” value (yellow nutsedge; 16 g ai/ha) was 0 and the “Nutsedge, Yellow plant response rating” value (yellow nutsedge; 31 g ai/ha) was 0. The “Nutsedge, Yellow plant response rating” value (yellow nutsedge; 62 g ai/ha) was 0, the “Plant response rating, Nutsedge, Yellow” value (yellow nutsedge; 125 g ai/ha) was 0 and the “Plant response rating, Nutsedge, Yellow” value (yellow nutsedge; 250 g ai/ha) was 10. For the same molecule, the “Ryegrass, Italian plant response rating” value (Italian ryegrass; 16 g ai/ha) was 0, the “Ryegrass, Italian plant response rating” value (Italian ryegrass; 31 g ai/ha) was 0 and the “Ryegrass, Italian plant response rating” value (Italian ryegrass; 62 g ai/ha) was 0. The “Plant response rating, Ryegrass, Italian” value (Italian ryegrass; 125 g ai/ha) was 20, the “Plant response rating, Ryegrass, Italian” value (Italian ryegrass; 250 g ai/ha) was 35 and the “Goosegrass plant response rating” value (goosegrass; 16 g ai/ha) was 0. The “Goosegrass plant response rating” value (goosegrass; 31 g ai/ha) was 0, the “Goosegrass plant response rating” value (goosegrass; 62 g ai/ha) was 30 and the “Plant response rating, Goosegrass” value (goosegrass; 125 g ai/ha) was 90. For the same molecule, the “Plant response rating, Goosegrass” value (goosegrass; 250 g ai/ha) was 98, the “Dayflower, VA plant response rating” value (dayflower; 16 g ai/ha) was 0 and the “Dayflower, VA plant response rating” value (dayflower; 31 g ai/ha) was 0. The “Dayflower, VA plant response rating” value (dayflower; 62 g ai/ha) was 35, the “Plant response rating, Dayflower, VA” value (dayflower; 125 g ai/ha) was 95 and the “Plant response rating, Dayflower, VA” value (dayflower; 250 g ai/ha) was 98. The “Sandbur plant response rating” value (sandbur; 16 g ai/ha) was 0, the “Sandbur plant response rating” value (sandbur; 31 g ai/ha) was 0 and the “Sandbur plant response rating” value (sandbur; 62 g ai/ha) was 0. The “Plant response rating, Sandbur” value (sandbur; 125 g ai/ha) was 5 and the “Plant response rating, Sandbur” value (sandbur; 250 g ai/ha) was 75.
`N#Cc1cccc(Oc2ncc(Br)cn2)c1-n1cc(C(F)(F)F)cn1` [Compound 59, 3-[(5-bromo-2-pyrimidinyl)oxy]-2-[4-(trifluoromethyl)-1H-pyrazol-1-yl]benzonitrile] was tested, and the “Plant response rating, Rice” value (rice; 31 g ai/ha) was 0, the “Plant response rating, Rice” value (rice; 62 g ai/ha) was 15 and the “Plant response rating, Rice” value (rice; 125 g ai/ha) was 20. For the same molecule, the “Plant response rating, Rice” value (rice; 250 g ai/ha) was 20, the “Beggarticks plant response rating” value (hairy beggarticks; 16 g ai/ha, preemergence) was 0 and the “Beggarticks plant response rating” value (hairy beggarticks; 31 g ai/ha, preemergence) was 0. The “Plant response rating, Beggarticks” value (hairy beggarticks; Preemergence, 62 g ai/ha) was 0, the “Plant response rating, Beggarticks” value (hairy beggarticks; preemergence, 125 g ai/ha) was 0 and the “Plant response rating, Beggarticks” value (hairy beggarticks; preemergence, 250 g ai/ha) was 25. The “Surinam Grass plant response rating” value (surinam grass; 16 g ai/ha) was 0, the “Surinam Grass plant response rating” value (surinam grass; 31 g ai/ha) was 0 and the “Surinam Grass plant response rating” value (surinam grass; 62 g ai/ha) was 5. For the same molecule, the “Plant response rating, Surinam Grass” value (surinam grass; 125 g ai/ha) was 20, the “Plant response rating, Surinam Grass” value (surinam grass; 250 g ai/ha) was 65 and the “Poinsettia, Wild plant response rating” value (wild poinsettia; 16 g ai/ha) was 0. The “Poinsettia, Wild plant response rating” value (wild poinsettia; 31 g ai/ha) was 0, the “Poinsettia, Wild plant response rating” value (wild poinsettia; 62 g ai/ha) was 10 and the “Plant response rating, Poinsettia, Wild” value (wild poinsettia; 125 g ai/ha) was 20. For the same molecule, the “Plant response rating, Poinsettia, Wild” value (wild poinsettia; 250 g ai/ha) was 100, the “Foxtail, Green plant response rating” value (green foxtail; 16 g ai/ha) was 0 and the “Foxtail, Green plant response rating” value (green foxtail; 31 g ai/ha) was 60. For the same molecule, the “Foxtail, Green plant response rating” value (green foxtail; 62 g ai/ha) was 100, the “Plant response rating, Foxtail, Green” value (green foxtail; 125 g ai/ha) was 100 and the “Plant response rating, Foxtail, Green” value (green foxtail; 250 g ai/ha) was 100. For the same molecule, the “Arrowleaf Sida plant response rating” value (arrowleaf sida; 16 g ai/ha, preemergence) was 50, the “Arrowleaf Sida plant response rating” value (arrowleaf sida; 31 g ai/ha, preemergence) was 50 and the “Plant response rating, Arrowleaf Sida” value (arrowleaf sida; Preemergence, 62 g ai/ha) was 75. For the same molecule, the “Plant response rating, Arrowleaf Sida” value (arrowleaf sida; preemergence, 125 g ai/ha) was 100, the “Plant response rating, Arrowleaf Sida” value (arrowleaf sida; preemergence, 250 g ai/ha) was 100 and the “Lambsquarters plant response rating” value (lambsquarters; 16 g ai/ha) was 98. The “Lambsquarters plant response rating” value (lambsquarters; 31 g ai/ha) was 98, the “Lambsquarters plant response rating” value (lambsquarters; 62 g ai/ha) was 100 and the “Plant response rating, Lambsquarters” value (lambsquarters; 125 g ai/ha) was 100. The “Plant response rating, Lambsquarters” value (lambsquarters; 250 g ai/ha) was 100, the “Nutsedge, Yellow plant response rating” value (yellow nutsedge; 16 g ai/ha) was 0 and the “Nutsedge, Yellow plant response rating” value (yellow nutsedge; 31 g ai/ha) was 0. For the same molecule, the “Nutsedge, Yellow plant response rating” value (yellow nutsedge; 62 g ai/ha) was 0, the “Plant response rating, Nutsedge, Yellow” value (yellow nutsedge; 125 g ai/ha) was 30 and the “Plant response rating, Nutsedge, Yellow” value (yellow nutsedge; 250 g ai/ha) was 50. For the same molecule, the “Ryegrass, Italian plant response rating” value (Italian ryegrass; 16 g ai/ha) was 0, the “Ryegrass, Italian plant response rating” value (Italian ryegrass; 31 g ai/ha) was 0 and the “Ryegrass, Italian plant response rating” value (Italian ryegrass; 62 g ai/ha) was 50. For the same molecule, the “Plant response rating, Ryegrass, Italian” value (Italian ryegrass; 125 g ai/ha) was 75, the “Plant response rating, Ryegrass, Italian” value (Italian ryegrass; 250 g ai/ha) was 95 and the “Goosegrass plant response rating” value (goosegrass; 16 g ai/ha) was 15. The “Goosegrass plant response rating” value (goosegrass; 31 g ai/ha) was 25, the “Goosegrass plant response rating” value (goosegrass; 62 g ai/ha) was 65 and the “Plant response rating, Goosegrass” value (goosegrass; 125 g ai/ha) was 98. The “Plant response rating, Goosegrass” value (goosegrass; 250 g ai/ha) was 98, the “Dayflower, VA plant response rating” value (dayflower; 16 g ai/ha) was 0 and the “Dayflower, VA plant response rating” value (dayflower; 31 g ai/ha) was 5. The “Dayflower, VA plant response rating” value (dayflower; 62 g ai/ha) was 25, the “Plant response rating, Dayflower, VA” value (dayflower; 125 g ai/ha) was 85 and the “Plant response rating, Dayflower, VA” value (dayflower; 250 g ai/ha) was 98. For the same molecule, the “Sandbur plant response rating” value (sandbur; 16 g ai/ha) was 0, the “Sandbur plant response rating” value (sandbur; 31 g ai/ha) was 15 and the “Sandbur plant response rating” value (sandbur; 62 g ai/ha) was 30. The “Plant response rating, Sandbur” value (sandbur; 125 g ai/ha) was 50 and the “Plant response rating, Sandbur” value (sandbur; 250 g ai/ha) was 95.

Reference: patent publication US9695155B2, “Herbicidal substituted pyrimidinyloxy benzene compounds” (E. I. DU PONT DE NEMOURS AND COMPANY, priority 2013, dated 2017)
